Reference: US8822517B2, “Arylosulfonamides for the treatment of CNS diseases” (Adamed SP. Z O.O., priority 2010, dated 2014)
Marks after values point to notes of the source that are not given here.

Assays:
histaminergic receptor = biological target: T1, histaminergic receptor (Cavia porcellus, UniProt P31389); assay: Guinea-pig ileum test, antagonism of histamine contraction; settings: antagonistic activity towards histaminergic receptor, agonist histamine, read-out: H ant** (pKb) (converted)
T1 construct: Terminal ileum was dissected and placed into a Krebs solution; from tissue; host or cells: guinea-pig terminal ileum segments (organ bath)
T1 sequence (P31389 whole entry): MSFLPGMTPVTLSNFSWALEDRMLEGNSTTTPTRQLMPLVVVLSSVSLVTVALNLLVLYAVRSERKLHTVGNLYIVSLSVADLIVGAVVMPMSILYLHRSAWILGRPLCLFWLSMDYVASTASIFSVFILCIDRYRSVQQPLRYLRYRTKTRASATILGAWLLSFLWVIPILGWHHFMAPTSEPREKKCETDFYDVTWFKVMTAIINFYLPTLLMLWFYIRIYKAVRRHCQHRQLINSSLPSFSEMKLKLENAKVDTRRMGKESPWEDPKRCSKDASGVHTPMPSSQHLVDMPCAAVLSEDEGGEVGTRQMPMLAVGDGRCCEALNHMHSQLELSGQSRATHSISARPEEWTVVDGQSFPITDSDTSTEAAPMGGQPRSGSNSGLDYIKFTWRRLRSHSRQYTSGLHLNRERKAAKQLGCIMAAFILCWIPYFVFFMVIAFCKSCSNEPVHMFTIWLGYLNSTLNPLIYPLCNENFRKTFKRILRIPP
Experimental: Ileum was prepared from male guinea-pigs with 300-350 g of body weight, fasted for 24 h before experiment with free access to drinking water. Terminal ileum was dissected and placed into a Krebs solution (NaCl 120 mM, KCl 5.6 mM, MgCl2 2.2 mM, CaCl2 2.4 mM, NaHCO3 19 mM, glucose 10 mM) and 2 cm-long fragments were cut. Each segment of the gut was placed in 30 ml chamber filled with the Krebs solution at 37 C, pH 7.4, with constant oxygenation (O2/CO2, 19:1), fixed by the lower end to a glass rod and by the upper end to the force-displacement transducer FDT 10-A (Biopac Systems, COMMAT, Ltd., Turkey). The preparation was allowed to stabilize in organ baths for 60 min under a resting tension of 0.5 g, washing every 15 min with fresh Krebs solution. All responses were recorded using software Biopac Systems Inc MP-35 Data Acquisition, Turkey.
In next step, stock solutions were diluted 10× in water.
The equilibration period a cumulative concentration-response curve was constructed in so each tissue for respective agonist—carbachol (3×10^−9−3×10^−6 M) or histamine (10^−8-10^−5 M) by the method of van Rossum (Ref. 24). Following the first agonist curve, tissues were incubated with one of the concentrations of tested compounds for 15 min and the next cumulative concentration curve to agonist was obtained. Only one concentration of the antagonist was tested in each piece of tissue. Experiments were repeated three to eight times.
After the equilibration period a cumulative concentration-response curve was constructed in each tissue for histamine (10^−8-10^−5 M) by the method of van Rossum. Following the first histamine curve, tissues were incubated with one of the concentrations of tested compounds for 15 min and the next cumulative concentration curve to histamine was obtained. Only one concentration of the antagonist was tested in each piece of tissue. Experiments were repeated three to seven times.
Concentration-response curves were analysed using GraphPad Prism 4.0 (GraphPad Software Inc., San Diego, Calif., USA). […]

mice [1] = assay: d-Amphetamine-induced locomotor hyperactivity in mice; settings: for MED*: minimum effective dose, d-amphetamine-induced locomotor hyperactivity, i.p.
Experimental: (§1) All the experiments were performed by two observers unaware of the treatment applied between 9:00 and 14:00 on separate groups of animals. All animals were used only once and were killed immediately after the experiment.
The locomotor activity was recorded with an Opto M3 multi-channel activity monitor (MultiDevice Software v. 1.3, Columbus Instruments). The mice were individually placed in plastic cages (22×12×13 cm) for 30 minutes habituation period, and then the crossings of each channel (ambulation) were counted during 1 h with data recording every 5 minutes. The cages were cleaned up with 70% ethanol after each mouse. Drugs were administered to 10 mice per treatment group. d-Amphetamine was administered 30 minutes before the test.
(§2) An injection volume of 10 ml/kg (mice) or 2 ml/kg (rats) was used throughout and all compounds were administered intraperitoneally (i.p.), except d-amphetamine that was given subcutaneously (s.c.).
All the data are expressed as the mean±SEM. The statistical significance of effects was evaluated using separate one-way analysis of variance (ANOVA) with comparison between individual groups by Dunnett's test (when only one drug was given) or by the Tukey's test when two drugs were used; p<0.05, p<0.01 and p<0.001 were considered statistically significant. ED50 values were calculated using Graph Pad Prism 5 Software.

Wistar rats [2] = assay: Passive avoidance procedure in rats; settings: passive-avoidance (model of memory disturbance)
Source text: (§3) Drug-naive male Wistar rats (Charles River, Sulzfeld, Germany) weighing 250-400 g were used in all experiments. Rats were housed two per standard plastic cage and kept in a room with constant environmental conditions (21-22′C, relative humidity 60%, a 12:12 light-dark cycle with lights on at 7:00 a.m.). Animals were supplied by the breeder two weeks before the onset of behavioral procedures. During this time, the subjects were weighed and handled several times. Tap water and standard lab chow (Labofeed H, WPIK, Kcynia, Poland) was available ad libitum.
Potentially impairing effects of test substance on learning and memory function in rats were evaluated using a step-through passive avoidance (PA) test. […]
In the training session (acquisition), animals were placed in the lighted compartment and allowed to explore it freely for 10 s. The sliding door was then opened, and the step-through latency for a rat to enter the dark compartment was measured. […]
The test (expression) session was performed 24 h after the training session. […] A step-through latency for animals to enter the dark compartment was measured with a cut-off of 300 s.
Weights and step-trough latencies were analyzed with the aid of a one-way analysis of variance (ANOVA). […]

Wistar rats [3] = assay: MK-801-induced stereotyped behaviour in rats; settings: MK-801-induced stereotyped behaviour (glutamate-related psychosis model)
Source text: as §3, §2
All tests were carried out in a sound-attenuated experimental room between 9:00 a.m. and 3:00 p.m. Within 24 h prior to testing, rats were habituated to glass observation cages (25×25×40 cm, W×H×L) with wood chip bedding on the floor for 20 min. […] Views of other rats in the experiment were prohibited. Fifteen minutes later, the time spent circling/head waving was recorded by a trained observer for 5 min. […] Rats were pre-injected with a test drug 60 min. before the start of the observation period.
The duration of stereotyped circling was analyzed with the aid of the Kruskal-Wallis analysis of variance (ANOVA). […]

Wistar rats [4] = assay: Conditioned avoidance response (CAR) in rats
Experimental: as §2
Rats trained to avoid the foot shock were placed in the experimental chambers for a 3 min. habituation period followed by 50 CAR trials presented on a 15-s variable interval (VI) schedule. Each trial consisted of a 10 s warning tone and stimulus light (conditioned stimulus) followed by 10 s electric shock (0.5 mA). If during the initial 10 s of the trial an animal crossed through the sliding door, the tone and light were terminated, no shock was applied, and the response was considered as “an avoidance response”. If the animal crossed through the sliding door after a foot shock was initiated, the response was considered as an escape response. […] If a response was made during an intertrial interval, it was punished with 0.5 s shock (0.5 mA). […] On test days, a tested drug was administered i.p. 60 minutes before the start of the test session. Each drug was tested at 3-4 different doses in the same group of eight animals. A 7-day wash-out period was introduced between the subsequent tests. […]
Avoidances, escapes, and “none” responses were analyzed with the aid of a one-way analysis of variance (ANOVA). […]

mice [5] = assay: MK-801-induced locomotor hyperactivity in mice
Experimental: as §1
The locomotor activity was recorded with an Opto M3 multi-channel activity monitor (MultiDevice Software v. 1.3, Columbus Instruments). The mice were individually placed in plastic cages (22×12×13 cm) for 30 minutes habituation period, and then the crossings of each channel (ambulation) were counted during 1 h with data recording every 5 minutes. The cages were cleaned up with 70% ethanol after each mouse.
The locomotor activity was recorded according to method described above.
as §2
All the data are expressed as the mean±SEM. The statistical significance of effects was evaluated using separate one-way analysis of variance (ANOVA) with comparison between individual groups by Dunnett's test (when only one drug was given) or by the Tukey's test when two drugs were used; p<0.05, p<0.01 and p<0.001 were considered statistically significant.

Wistar rats [6] = assay: 2,5-Dimethoxy-4-iodoamphetamine (DOI)-induced head twitches in rats
Source text: as §3, §2
All tests were carried out in a sound-attenuated experimental room between 9:00 a.m. and 3:00 p.m. as described above for spontaneous head twitches. […] Rats were pre-injected i.p. with a test drug 60 min. before the start of the test session. […] Five minutes later, head twitches were counted for 5 minutes. (300 s) by a trained observer.
Total numbers of head twitches (n/5 min.) were analyzed by means of the Kruskal-Wallis analysis of variance (ANOVA). The Mann-Whitney U test was used for individual post hoc comparisons.

Wistar rats [7] = assay: Amphetamine-induced PPI deficits in rats
Source text: as §3, §2
The PPI apparatus consisted of eight startle chambers (SR-LAB, San Diego Instruments, San Diego, Calif., USA). […] Startle responses, reflecting the motion of animals in the cylinder so following the acoustic stimulus, were detected by a piezoelectric transducer mounted below the frame. […]
This interval was randomized by the SR-LAB software. Startle responses were measured for 100 ms after the onset of the last trial stimulus. […]
Startle responses (in manufacturer's arbitrary units), and magnitudes of PPI (%) were analyzed with the aid of a one-way analysis of variance (ANOVA). […]

Swiss mice = assay: Four-plate test in Swiss mice; assay type: in vivo
Wistar rats [8] = assay: Apomorphine-induced stereotyped behaviour in rats
Source text: as §3, §2
All tests were carried out in a sound-attenuated experimental room between 9:00 a.m. and 3:00 p.m. Within 24 h prior to testing, rats were habituated to glass observation so cages (25×25×40 cm, W×H×L) with wood chip bedding on the floor for 20 min. […] Rats were injected with apomorphine (0.6 mg/kg) and placed in the observation cages. […] Twenty minutes later, the time spent licking/biting and sniffing downward was recorded by a trained observer for 5 minutes (300 s). […]
The duration of stereotyped sniffing and licking/biting was analyzed with the aid of the Kruskal-Wallis analysis of variance (ANOVA). […]

Wistar rats [9] = assay: Elevated plus maze test in rats
Experimental: as §1
Floor of the plus-maze was made of infrared transparent material what means that there are no visible sensors. The plus-maze was placed in a darkened room, and the center of the apparatus was illuminated with a 25 W electric bulb hanging 100 cm above. Plus-maze apparatus was connected to PC software by control chassis. Each rat was gently placed in the center of the plus-maze, facing one of the closed arms, immediately after a 5-min adaptation period in a plastic black box (60×60×35 cm). During a 5-minutes test period, automated Motor Monitor System recorded the number of entries into the closed and open arms, the time spent in and the distance (cm) covered by a rat in either type of the arms. After each trial the maze was wiped clean. All compounds were administered to 5-8 rats per treatment group.

Wistar rats [10] = assay: Forced swimming test (Porsolt's test) in rats; assay type: in vivo
Source text: as §3, §2
The animals were individually subjected to two experimental trials during which they were forced to swim in a cylinder (40 cm high, 18 cm in diameter) filled with warm water (25° C.) to a height of 15 cm. A video camera was mounted 50 cm above the cylinder. The first (habituation) and second (test) trial lasted 15 and 5 minutes, respectively. There was a 24-h interval between the trials. The total duration of immobility was measured during the second trial by a trained observer located in a separate room.
Weights and time of immobility were analyzed with the aid of a one-way analysis of variance (ANOVA). […]

Wistar rats [11] = assay: Conflict drinking test (Vogel test) in rats; assay type: in vivo
Source text: Recording data started immediately after the first lick and every 20 licks rats were punished with an electric shock (0.5 mA, lasting 1 s). […] If a rat was drinking when an impulse was released, it received a shock.

C57BL/6J mice = assay: Tail suspension test in C57BL/6J mice; assay type: in vivo
[12] = biological target: serotoninergic 5-HT2C receptor (Homo sapiens, UniProt P28335); assay: Cellular functional assay, serotoninergic 5-HT2C receptor (agonism/antagonism); assay type: cell-based; settings: agonist effect, percent of control specific agonist response; 1×10^−6M
Sequence of serotoninergic 5-HT2C receptor (P28335 33-458): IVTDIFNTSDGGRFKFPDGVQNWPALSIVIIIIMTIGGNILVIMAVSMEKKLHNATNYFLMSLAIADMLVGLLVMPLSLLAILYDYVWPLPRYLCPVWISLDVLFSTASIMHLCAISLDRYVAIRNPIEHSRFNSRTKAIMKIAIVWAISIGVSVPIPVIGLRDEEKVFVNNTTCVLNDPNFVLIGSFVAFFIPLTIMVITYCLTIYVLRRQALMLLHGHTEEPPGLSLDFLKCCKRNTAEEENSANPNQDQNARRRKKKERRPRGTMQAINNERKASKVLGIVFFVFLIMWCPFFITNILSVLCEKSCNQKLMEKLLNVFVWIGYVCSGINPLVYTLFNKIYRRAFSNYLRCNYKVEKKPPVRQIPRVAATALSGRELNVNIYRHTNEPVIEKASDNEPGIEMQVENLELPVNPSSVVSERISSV
Experimental: The compounds were tested at the concentration of 1×10^−6M.
In the Tables ag refers to agonism, and antag to antagonism).

Q: With `O=S(=O)(NCCCCN1CCN(c2nsc3ccccc23)CC1)c1ccc2ccccc2c1` [Compound 2, N-(4-(4-(1,2-Benzothiazol-3-yl)piperazin-1-yl)butyl)naphthalene-2-sulphonamide] as the compound, how does the Kb (histaminergic receptor) read?
A: Its Kb is 457 nM.

Q: What about the “MED*” value (mice [1]) of the same compound?
A: The value was 5 mg/kg.

Q: `O=S(=O)(NCCCCN1CCC(c2noc3cc(F)ccc23)CC1)c1ccc2cc(Cl)ccc2c1` [Compound 97, 6-Chloro-N-[4-[4-(6-fluoro-1,2-benzoxazol-3-yl)piperidin-1-yl]butyl]naphthalene-2-sulphonamide] was tested. Which “MED*” value (mice [1]) did it give?
A: The value was 2.5 mg/kg.

Q: How did the “MED*” value (mice [1]) turn out when `Cc1cccc(S(=O)(=O)NCCCN2CCN(c3nsc4ccccc34)CC2)c1` [Compound 7, N-(3-(4-(1,2-Benzothiazol-3-yl)piperazin-1-yl)propyl)-3-methylbenzenesulphonamide] was run?
A: Its value is 2 mg/kg.

Q: Which Kb (histaminergic receptor) does the source give for `Cc1cccc(S(=O)(=O)NCCCCN2CCN(c3nsc4ccccc34)CC2)c1` [Compound 3, N-(4-(4-(1,2-Benzothiazol-3-yl)piperazin-1-yl)butyl)-3-methylbenzenesulphonamide] here?
A: The Kb was 148 nM.

Q: How did the “MED*” value (mice [1]) turn out when `O=S(=O)(NCCCCN1CCC(c2noc3cc(F)ccc23)CC1)c1ccc2ccccc2c1` [Compound 18, N-[4-[4-(6-Fluoro-1,2-benzoxazol-3-yl)piperidin-1-yl]butyl]naphthalene-2-sulphonamide] was run?
A: The value was 2.5 mg/kg.

Q: For `Cc1cccc(S(=O)(=O)NCCCN2CCC(c3noc4cc(F)ccc34)CC2)c1` [Compound 22, N-[3-[4-(6-Fluoro-1,2-benzoxazol-3-yl)piperidin-1-yl]propyl]-3-methylbenzenesulphonamide], which “MED” value (Wistar rats [2]) is on record?
A: The value was over 30 mg/kg.

Q: And the “MED” value (Wistar rats [3])?
A: Its value is 3 mg/kg.

Q: What about the “activity in active avoidance response” value (Wistar rats [4]) of the same compound?
A: The value was “active”.

Q: What about the “MED” value (Wistar rats [4]; active-avoidance response (model of positive symptoms of schizophrenia)) of the same compound?
A: The value was 3 mg/kg.

Q: And the “activity in MK-801 induced hyperlocomotion” value (mice [5])?
A: Its value is “active”.

Q: What about the “MED*” value (mice [5]; minimum effective dose, MK-801-induced locomotor hyperactivity, i.p.) of the same compound?
A: Its value is 1.25 mg/kg.

Q: And the “activity in stereotyped behavior induced by DOI” value (Wistar rats [6])?
A: The value was “active”.

Q: What about the “MED [mg/kg]” value (Wistar rats [6]; DOI-induced head twitches (serotonin-related psychosis model)) of the same compound?
A: The value was ≤ 1 * mg/kg.

Q: What about the “activity in reversal of deficits in prepulse inhibition in rats” value (Wistar rats [7]) of the same compound?
A: Its value is “active”.

Q: What about the “MED” value (Wistar rats [7]; prepulse inhibition disruption caused by amphetamine administration) of the same compound?
A: The value was 30 mg/kg.

Q: What about the “MED” value (Swiss mice; four-plate test in mice) of the same compound?
A: Its value is 0.312 mg/kg.

Q: And the “activity in four plates test in mice” value (Swiss mice; mice, anxiolytic model)?
A: The value was “active”.

Q: And the “activity in stereotyped behavior induced by apomorphine” value (Wistar rats [8])?
A: Its value is “active”.

Q: What about the “MED” value (Wistar rats [8]; apomorphine-induced stereotyped behaviour (dopamine-related psychosis model)) of the same compound?
A: Its value is 10 mg/kg.

Q: What about the “activity in elevated plus maze” value (Wistar rats [9]; anxiolytic model) of the same compound?
A: The value was “active”.

Q: What about the “MED [mg/kg]” value (Wistar rats [9]; elevated plus-maze (potential anxiolytic activity)) of the same compound?
A: Its value is ≤ 0.3 * mg/kg.

Q: What about the “MED” value (Wistar rats [10]; Porsolt forced swim test (potential antidepressant activity)) of the same compound?
A: The value was 0.3 mg/kg.

Q: And the “activity in forced swim test (Porsolt) in rats” value (Wistar rats [10]; antidepressant model)?
A: The value was “active”.

Q: What about the “MED” value (Wistar rats [11]; Vogel test (potential anxiolytic activity)) of the same compound?
A: The value was 3 mg/kg.

Q: And the “activity in conflict drinking test (Vogel) in rats” value (Wistar rats [11]; anxiolytic model)?
A: The value was “active”.

Q: What about the “activity in tail suspension test in mice” value (C57BL/6J mice; mice, antidepressant model) of the same compound?
A: The value was “active”.

Q: And the “MED” value (C57BL/6J mice; tail suspension test in C57BL/6J mice)?
A: Its value is 0.156 mg/kg.

Q: And the “activity in d-amphetamine induced hyperlocomotion” value (mice [1])?
A: Its value is “active”.

Q: What about the “MED*” value (mice [1]) of the same compound?
A: The value was 2.5 mg/kg.

Q: Which Kb (histaminergic receptor) does the source give for `O=S(=O)(NCCCCN1CCN(c2nsc3ccccc23)CC1)c1cccc2ccccc12` [Compound 1, N-(4-(4-(1,2-Benzothiazol-3-yl)piperazin-1-yl)butyl)naphthalene-1-sulphonamide] here?
A: Its Kb is 498 nM.

Q: Which “5-HT2C -ag [%]” value [12] does the source give for `O=S(=O)(NCCCCN1CCN(c2nsc3ccccc23)CC1)c1cc2ccc(Cl)cc2s1` [Compound 241, N-[4-[4-(1,2-Benzothiazol-3-yl)piperazin-1-yl]butyl]-6-chlorobenzothiophene-2-sulphonamide] here?
A: The value was −4%.

Q: For `Cc1c(S(=O)(=O)NCCCCN2CCN(c3nsc4ccccc34)CC2)sc2ccc(F)cc12` [Compound 65, N-[4-[4-(1,2-Benzothiazol-3-yl)piperazin-1-yl]butyl]-5-fluoro-3-methylbenzothiophene-2-sulphonamide], which “5-HT2C -ag [%]” value [12] is on record?
A: The value was 0%.
